{"source": "patent US10544066B2", "about": "“Microencapsulated nitrification inhibitor compositions” (DOW AGROSCIENCES LLC, priority 2014, dated 2020)", "origin": "cited, not measured here", "settings": "at 23° Celsius"}
{"compound": "Clc1cccc(C(Cl)(Cl)Cl)n1", "note": "[nitrapyrin, 2-chloro-6-(trichloromethyl)pyridine]", "values": [{"measurement": "vapor pressure", "result": "2.8×10^−3 mm Hg"}]}
